The results in this text go back to paper PMC11676834, “Composition of Triterpene Glycosides of the Far Eastern Sea Cucumber Cucumaria conicospermium Levin et Stepanov; Structure Elucidation of Five Minor Conicospermiumosides A3-1, A3-2, A3-3, A7-1, and A7-2; Cytotoxicity of the Glycosides Against Human Breast Cancer Cell Lines; Structure–Activity …” (Marine Drugs, 2024).

Read-outs that look alike come from different tables or passages of the source. Where only a bound is given, the exact number is not on record here.

A short description of data set [1]: in vitro. Format: cell-based, human. The note with it: human. The source says: (§1) Human erythrocytes were purchased from the Station of Blood Transfusion, Vladivostok. Human mammary epithelial cell line MCF-10A CRL-10317, human breast cancer cell lines T-47D HTB-133, MCF-7 HTB-22, and MDA-MB-231 CRM-HTB-26 were received from ATCC (Manassas, VA, USA). Culturing conditions: medium of RPMI-1640 with 1% penicillin/streptomycin (Biolot, St. Petersburg, Russia) and 10% fetal bovine serum (FBS) (Biolot, St. Petersburg, Russia) for the T-47D cell line; Minimum Essential Medium (MEM) with 1% penicillin/streptomycin sulfate (Biolot, St. Petersburg, Russia) and FBS (Biolot, St. Petersburg, Russia) to a final concentration of 10% for MCF-7 and MDA-MB-231 cells; DMEM/F12 medium with 10% FBS, 20 ng/mL EGF, […] hydrocortisone, 100 ng/mL cholera toxin, 10 μg/mL insulin, and 1% penicillin/streptomycin (BioinnLabs, Rostov-on-Don, Russia) for MCF-10A cell line.
(§2) The concentrations of tested glycosides were 0.1–50 µM; positive controls were cisplatin and okhotoside A1-1 (7). […] Then, the solutions of tested compounds with medium were replaced by 100 µL of fresh medium, and 10 µL of 3-(4,5-dimethylthiazol-2-yl)-2,5-diphenyltetrazolium bromide (MTT) (PanReac, AppliChem, Darmstadt, Germany) stock solution (5 mg/mL) was added to each well and incubated for 4 h, followed by the addition of 100 µL of SDS-HCl solution (1 g SDS/10 mL d-H2O/17 µL 6 N HCl) and further incubated for 18 h. Multiskan FC microplate photometer (Thermo Fisher Scientific, Waltham, MA, USA) was used to measure the absorbance of the converted dye formazan at 570 nm. The concentration caused the 50% cell metabolic activity inhibition (IC50) expresses the cytotoxic activity of each glycoside. The experiments were conducted in triplicate, p ≤ 0.05.

The subject of data set [2] is MDA-MB-231 cells. The experiment in a line: cells. Format: cell-based, human.
Description: as §1, §2

Data set [3] concerns human erythrocytes. The experiment in a line: Hemolytic activity. Format: cell-based. The settings on record: Erythrocyte, 1 h at 37 °C, read-out: ED50, Erythrocytes (hemolytic activity). The method, then: Human blood (B(III) Rh+) was used to obtain erythrocytes by centrifuging 450× g three times for 5 min with phosphate-buffered saline (PBS) (pH 7.4) at 4 °C on centrifuge LABOFUGE 400R (Heraeus, Hanau, Germany). Ice-cold PBS (pH 7.4) was used for resuspension of erythrocytes residue to a final optical density of 1.5 at 700 nm, which was kept on ice. Then, 10 µL of tested compound solution or control (okhotoside A1-1 (7)) were added to 90 µL of erythrocyte suspension in V-bottom 96-well plates and exposed for 1 h at 37 °C. Next, centrifugation at 900× g for 10 min on a laboratory centrifuge LMC-3000 (Biosan, Riga, Latvia), led to separation of layers, and 80 µL of supernatant was carefully decanted and transferred into new flat-plate for each. The values of erythrocyte lysis were measured on microplate photometer Multiskan FC (Thermo Fisher Scientific, Waltham, MA, USA) at λ = 570 nm as hemoglobin concentration in supernatant. The effective dose, causing lysis of 50% erythrocytes (ED50), was calculated with SigmaPlot 14.0 software. All the experiments were carried out in triple repetitions, p ≤ 0.05.

Data set [4] deals with MCF-7 cells. Kind of data set: cells. Format: cell-based, human. The note with it: MTT, 24 h, read-out: Cytotoxicity, IC50, MCF-7.
Description: as §1
(§3) The concentrations of tested glycosides were 0.1–50 µM; positive controls were cisplatin and okhotoside A1-1 (7). Methodology: to each well of 96-well plates, the cell suspension (180 µL) with solution (20 µL) of tested glycoside in a certain concentration was placed (MCF-10A, MCF-7, T-47D, and MDA-MB-231—7 × 10^3 cells per well) and incubated in the atmosphere with 5% CO2 at 37 °C for 24 h. Then, the solutions of tested compounds with medium were replaced by 100 µL of fresh medium, and 10 µL of 3-(4,5-dimethylthiazol-2-yl)-2,5-diphenyltetrazolium bromide (MTT) (PanReac, AppliChem, Darmstadt, Germany) stock solution (5 mg/mL) was added to each well and incubated for 4 h, followed by the addition of 100 µL of SDS-HCl solution (1 g SDS/10 mL d-H2O/17 µL 6 N HCl) and further incubated for 18 h. Multiskan FC microplate photometer (Thermo Fisher Scientific, Waltham, MA, USA) was used to measure the absorbance of the converted dye formazan at 570 nm. The concentration caused the 50% cell metabolic activity inhibition (IC50) expresses the cytotoxic activity of each glycoside. The experiments were conducted in triplicate, p ≤ 0.05.

Data set [5] deals with T-47D cells. The experiment in a line: cells. Format: cell-based, human. The note with it: MTT, 24 h, read-out: Cytotoxicity, IC50, T-47D.
Description: as §1, §3

For data set [6], the system named is MDA-MB-231 cells. Kind of data set: Colony formation (clonogenic) assay, MDA-MB-231. Format: cell-based, human. The note with it: Homo sapiens, MDA-MB-231, read-out: Inhibition of colony growth of MDA-MB-231 cells; for inhibition at 5 µM: inhibition out of control. The protocol: The influence of glycosides on colony formation by MCF-10A or MDA-MB-231 cells was tested by the clonogenic assay. Cell density: 0.3 × 10^2/mL for MDA-MB-231 and for MCF-10A cells per well; incubation conditions: 10–12 days, 37 °C, atmosphere with 5% CO2; obtained: visible to eye colonies (at least 50 cells per colony); fixation with methanol (25 min); staining with 0.5% solution of crystal violet (25 min); washing and air-drying of plates. The counting of grown colonies was carried out using a BIO-PRINT-Cx4 Edge-Fixed Pad-Container (Vilber, Collégien, France) using Bio-Vision Software user and service manual-v18.01 (Vilber, Collégien, France). The results are presented as colony inhibition in comparison with the control.

Data set [7] deals with MDA-MB-231 cells. Kind of data set: Wound scratch migration assay. Format: cell-based, human. The note with it: Homo sapiens, MDA-MB-231; 2 μM, 24 h; read-out: Inhibition of migration of MDA-MB-231 cells as compared with control. The protocol:
Attached to special migration plate plastic bottom MDA-MB-231 cells were separated by a silicone insert (Culture-insert 2 Well 24, ibiTreat). After removing an insert, the gap between the cells was 500 ± 50 μm. Cell debris and floating cells were deleted, and the fresh culture medium was added. Then, cells were treated with various concentrations of glycosides or culture medium only (vehicle control) and left for 24 hrs. Cell migration into the wound area was observed under a fluorescence microscope (MIB-2-FL, LOMO, Russia) with objective 10× magnification.

The subject of data set [8] is MCF-10A cells. The experiment in a line: in vitro. Format: cell-based, human. The settings on record: MTT, 24 h; read-out: Cytotoxicity, IC50, MCF-10A.
Description: as §1, §2

The mark [9] stands for this setting: 48 h, read-out: Cytotoxicity, IC50, 48 h, MCF-10A.
Where [10] appears, read: 72 h, read-out: Cytotoxicity, IC50, 72 h, MCF-10A.
Setting [11] is: MTT, 24 h, read-out: Cytotoxicity, IC50, MCF-10A.
Setting [12] is: Homo sapiens, MDA-MB-231, 48 h, read-out: Cytotoxicity, IC50, 48 h, MDA-MB-231.
The mark [13] stands for this setting: Homo sapiens, MDA-MB-231, 72 h, read-out: Cytotoxicity, IC50, 72 h, MDA-MB-231.
Where [14] appears, read: Homo sapiens, MDA-MB-231, MTT, 24 h, read-out: Cytotoxicity, IC50, MDA-MB-231.

A word on the IC50: it is the concentration that inhibits the measured activity by half. Regarding `CO[C@@H]1[C@@H](O)[C@H](O[C@@H]2[C@@H](O)[C@H](O[C@H]3[C@H](O)[C@@H](O[C@@H]4OC[C@@H](O)[C@H](O)[C@H]4O)[C@H](O[C@H]4[C@H](O[C@H]5CC[C@]6(C)C7CC[C@]8(C)[C@@H]([C@@](C)(O)[C@H](O)CC=C(C)C)CC[C@@]8(C)C7=CC[C@H]6C5(C)C)OC[C@@H](OS(=O)(=O)[O-])[C@@H]4O)O[C@@H]3C)O[C@H](COS(=O)(=O)[O-])[C@H]2O)O[C@H](CO)[C@H]1O.[Na+].[Na+]` (stereo partly drawn) [Conicospermiumoside A3-1 (1), 3β-O-{3-O-methyl-β-D-glucopyranosyl-(1→3)-6-O-sodium sulfate-β-D-glucopyranosyl-(1→4)-[(1→2)-β-D-xylopyranosyl]-β-D-quinovopyranosyl-(1→2)-4-O-sodium sulfate-β-D-xylopyranosyl}-20R,22R-dihydroxylanosta-7,24-diene], the IC50 came to 30.4 ± 1.05 µM in data set [1] (setting [9]); 39 ± 2.15 µM in data set [1] (setting [10]); 13.6 ± 0.71 µM in data set [1] (setting [11]); 2.54 ± 0.09 µM in data set [2] (setting [12]); 12.4 ± 0.75 µM in data set [2] (setting [13]); 5.93 ± 0.35 µM in data set [2] (setting [14]). Further, the IC50 was determined as 41.7 ± 3.08 µM in data set [4] (Homo sapiens, MCF7) and 19.9 ± 1.02 µM in data set [5] (Homo sapiens, T47D). Besides, the “Tumor cell selectivity index (SI), IC50 MCF-10A / IC50 MDA-MB-231” value in data set [2] (24 h) amounted to 2.29; in data set [2] (48 h) it was 11.97; in data set [2] (72 h), 3.14. The HC50 in data set [3] is 770 ± 70 nM. Besides, the inhibition at 5 µM in data set [6] was determined as 99.6%.
Take `CO[C@@H]1[C@@H](O)[C@H](O[C@@H]2[C@@H](O)[C@H](O[C@H]3[C@H](O)[C@@H](O[C@@H]4OC[C@@H](O)[C@H](O)[C@H]4O)[C@H](O[C@H]4[C@H](O[C@H]5CC[C@]6(C)C7CC[C@]8(C)[C@@H]([C@@](C)(O)C(=O)CC=C(C)C)CC[C@@]8(C)C7=CC[C@H]6C5(C)C)OC[C@@H](OS(=O)(=O)[O-])[C@@H]4O)O[C@@H]3C)O[C@H](COS(=O)(=O)[O-])[C@H]2O)O[C@H](CO)[C@H]1O.[Na+].[Na+]` (stereo partly drawn) [Conicospermiumoside A3-3 (3), 3β-O-{3-O-methyl-β-D-glucopyranosyl-(1→3)-6-O-sodium sulfate-β-D-glucopyranosyl-(1→4)-[(1→2)-β-D-xylopyranosyl]-β-D-quinovopyranosyl-(1→2)-4-O-sodium sulfate-β-D-xylopyranosyl}-20R-hydroxy,22-oxolanosta-7,24-diene]: the inhibition at 2 µM in data set [7] amounted to 63.7%; in data set [6] (2 μM), 96.8%. Further, the IC50 was determined as 10.6 ± 0.72 µM in data set [1] (setting [9]); 5.27 ± 0.36 µM in data set [1] (setting [10]); 11.4 ± 0.58 µM in data set [1] (setting [11]); 10.1 ± 0.71 µM in data set [2] (setting [12]); 5.18 ± 0.43 µM in data set [2] (setting [13]); 5.62 ± 0.26 µM in data set [2] (setting [14]). In addition, the IC50 in data set [4] (Homo sapiens, MCF7) turned out to be 28.5 ± 1.18 µM; in data set [5] (Homo sapiens, T47D), 10.7 ± 0.94 µM. In addition, the “Tumor cell selectivity index (SI), IC50 MCF-10A / IC50 MDA-MB-231” value in data set [2] (24 h) is listed as 2.03; in data set [2] (48 h) it was 1.05; in data set [2] (72 h), 1.02. The HC50 in data set [3] amounted to 210 ± 20 nM. Besides, in data set [6], the inhibition at 5 µM is 98.8%.
With `C=C(C)CCC[C@]1(C)OC(=O)C23CC[C@H]4C(=CC[C@H]5C(C)(C)C(O[C@@H]6OC[C@@H](OS(=O)(=O)O)[C@H](O)[C@H]6O[C@@H]6O[C@H](CO)[C@@H](O[C@@H]7O[C@H](COS(=O)(=O)O)[C@@H](O)[C@H](O[C@@H]8O[C@H](CO)[C@@H](O)[C@H](OC)[C@H]8O)[C@H]7O)[C@H](O)[C@H]6O[C@@H]6OC[C@@H](O)[C@H](O)[C@H]6O)CC[C@]45C)[C@]2(C)C[C@H](OC(C)=O)C31` (stereo partly shown) [Okhotoside B2 (9), okhotoside B2], the IC50 worked out at 10.7 ± 0.21 µM in data set [1] (setting [11]); 4.25 ± 0.38 µM in data set [2] (setting [14]); 39.8 ± 2.96 µM in data set [4] (Homo sapiens, MCF7); 11.1 ± 1.15 µM in data set [5] (Homo sapiens, T47D). Further, the HC50 in data set [3] turned out to be 1360 ± 100 nM.
Regarding `N.N.[Cl][Pt][Cl]` [cisplatin, reference compound], the IC50 was 74.3 ± 2.19 µM in data set [8]; at least 160 µM in data set [2] (MTT, 24 h, read-out: Cytotoxicity, IC50, MDA-MB-231); 113 ± 2.45 µM in data set [4]; above 160 µM in data set [5].
